Test results reported in paper PMC8269059, “Glycyrrhizin Derivatives Suppress Cancer Chemoresistance by Inhibiting Progesterone Receptor Membrane Component 1” (Cancers, 2021).
Several values for one entry are separate records, joined by “and”; a condition that tells them apart may be missing. Identical values can stand only once. Entries after “also recorded” stand apart in the source; their conditions may differ. Like-named read-outs stand apart in the source and are kept apart here.

Key:
[1] = tested on: HCT116 cells; assay: Chemosensitivity MTT assay in HCT116 cells; format: cell-based, human; settings: for Anti-proliferative / anti-cancer effect with anti-cancer agents: HCT116, MTT, with erlotinib or CDDP, compared with GL; for IC50: Homo sapiens, HCT-116, HCT116 cell viability, MTT
[2] = biological target: T1, heme-dimerized PGRMC1 (Homo sapiens, UniProt O00264); assay: ITC binding to heme-dimerized PGRMC1; settings: ITC; for Kd / KD: 298 K, 50 mM phosphate pH 7.0, heme-dimerized PGRMC1 (WT); for TΔS / ΔG / ΔH: heme-dimerized PGRMC1 (WT)
T1 construct: human PGRMC1 intracellular domain residues 43-195; GST (N, cleaved yes); made in house; host or cells: E. coli BL21 (DE3)
T1 sequence (O00264 43-195): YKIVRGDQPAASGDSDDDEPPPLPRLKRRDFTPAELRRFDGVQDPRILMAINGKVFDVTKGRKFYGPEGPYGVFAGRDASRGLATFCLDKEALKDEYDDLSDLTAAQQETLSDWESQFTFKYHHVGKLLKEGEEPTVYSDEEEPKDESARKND

[3] = biological target: T2, apo-PGRMC1 (Homo sapiens, UniProt O00264); assay: ITC binding to apo-PGRMC1; settings: apo-monomer form
T2 construct: human PGRMC1 intracellular domain residues 43-195; GST (N, cleaved yes); made in house; host or cells: E. coli BL21 (DE3)
T2 sequence (O00264 43-195): as above
From the text: Bacterial expression vectors pGEX-PGRMC1 (human PGRMC1 intracellular domain residues 43-195) and mammalian FLAG-tagged expression vector pCMV-FLAG-PGRMC1 (full-length) were constructed as described previously. Expression vectors for PGRMC1 point mutants were generated by site-directed mutagenesis with PCR. For construction of HMGB1 expression vector, human HMGB1 full-length cDNA was cloned from cDNA library of HCT116 cells using the primers (Forward: 5′-[…]-3′, Reverse: 5′-[…]-[…]-3′), digested with Bam HI and Sal I, and then ligated into pGEX6P1.
Expression vectors (pGEX-PGRMC1 (residues 43-195) or pGEX-HMGB1) were transformed into BL21 (DE3) competent E. coli cells, and the cells incubated in LB medium with ampicillin at 37 °C until the OD600 reached 0.8. Protein expression was induced by adding 1 mM isopropyl-β-thiogalactopyranoside (IPTG) and incubating at 37 °C for 4 h. […]
ITC experiments were performed at 298 K with ITC-Buffer (50 mM phosphate [pH 7.0]) using a MicroCal iTC200 (Malvern Panalytical, Malvern, UK). […] Binding isotherms were analyzed using SEDPHAT [35]. The binding of AG205 to apo- or heme-PGRMC1 (100 μM) was analyzed using a concentration of 3 mM containing 1% DMSO. […]

[4] = tested on: HCT116 cells xenograft; assay: HCT116 xenograft in nude mice; format: in vivo, mouse; settings: i.p. twice a week, 22 days, CDDP 2 mg/kg, GL 400 mg/kg, vs control
Description: All protocols for animal experiments in this study were approved by the Experimental Animal Committee of Keio University School of Medicine (approval number: 08024-(13), approval date: 30 September 2020). HCT116 cells (2 × 10^6 cells/mouse) with half of Matrigel (Corning, NY, USA) were transplanted subcutaneously into the flank of 7-week-old nude mice. Four days after the transplantation, tumor size was measured in three dimensions with calipers and grouped by tumor volume. CDDP (2 mg/kg), GL (400 mg/kg), or GlucoGL (100 mg/kg) were administered to the mice intraperitoneally, and the tumor volume was measured twice a week for 22 days.

[5] = tested on: GFP-fused PGRMC1 protein partially purified from granulosa cells; settings: competitive binding with labeled-progesterone; cited from earlier work
[6] = with CDDP (10 µM), read-out: IC50 CDDP
[7] = with erlotinib (20 µM), read-out: IC50 Erlotinib

Row | Compound | Anti-proliferative / anti-cancer effect with anti-cancer agents [1] | IC50 [1, 6] | IC50 [1, 7] | Kd [2] | TΔS [2] | ΔG [2] | ΔH [2] | KD [2] | also measured
1 | CC1(C(=O)O)CCC2(C)CCC3(C)C(=CC(=O)C4C5(C)CCC(OC6OC(C(=O)O)C(O)C(O)C6OC6OCC(O)(CO)C6O)C(C)(C)C5CCC43C)C2C1 (centres unmarked) [Apioglycyrrhizin] | potent anti-cancer effects | 35.1 µM | 62.5 µM | 4.85 µM | 6.18 K·kcal/mol | -7.26 kcal/mol | -1.08 kcal/mol |  | 
2 | CC1(C(=O)O)CCC2(C)CCC3(C)C(=CC(=O)C4C5(C)CCC(OC6OC(C(=O)O)C(O)C(O)C6OC6OC(C(=O)O)C(O)C(O)C6O)C(C)(CO)C5CCC43C)C2C1 (centres unmarked) [Licorice-saponin G2] | weaker anti-proliferative effects |  |  | 128 µM | 4.08 K·kcal/mol | -5.31 kcal/mol | -1.23 kcal/mol |  | 
3 | CC1(C(=O)O)CCC2(C)CCC3(C)C(=CC(=O)C4C5(C)CCC(OC6OC(C(=O)O)C(O)C(O)C6OC6OCC(O)C(O)C6O)C(C)(C)C5CCC43C)C2C1 (centres unmarked) [Araboglycyrrhizin] | potent anti-cancer effects | 26.6 µM | 35.3 µM | 8.46 µM | 5.90 K·kcal/mol | -6.93 kcal/mol | -1.03 kcal/mol |  | 
4 | CC1(C)[C@@H](OC(=O)CCC(=O)O)CC[C@]2(C)[C@H]3C(=O)C=C4[C@@H]5C[C@@](C)(C(=O)O)CC[C@]5(C)CC[C@@]4(C)[C@]3(C)CC[C@@H]12 [Carbenoxolone] | weaker anti-proliferative effects |  |  |  |  |  |  | No Binding | 
5 | Cc1ccc2c(c1)[C@H]1CN(C)CC[C@H]1N2C(=O)CSc1nnnn1-c1ccc(Cl)cc1 [AG205] |  |  |  |  |  |  |  | no binding activity; also recorded: did not observe AG205 binding | Binding to apo-PGRMC1 [3]: no binding activity; also recorded: did not observe AG205 binding
6 | CC12CCC3(C)C(=CC(=O)C4C5(C)CCC(OC6OC(C(=O)O)C(O)C(O)C6OC6OC(C(=O)O)C(O)C(O)C6O)C(C)(C)C5CCC43C)C1CC(C)(C(=O)O)C(O)C2 (centres unmarked) [Macedonoside A] | weaker anti-proliferative effects |  |  |  |  |  |  | No Binding | 
7 | CC1(C(=O)O)CCC2(C)CCC3(C)C(=CC(=O)C4C5(C)CCC(OC6OC(C(=O)O)C(O)C(O)C6O)C(C)(C)C5CCC43C)C2C1 (centres unmarked) [Glycyrrhetinic acid-3-O-mono-glucuronide] |  | 41.2 µM | 50.5 µM | 9.55 µM | 6.23 K·kcal/mol | -6.85 kcal/mol | -0.62 kcal/mol |  | 
8 | CC1OC(OC2C(OC3C(OC4CCC5(C)C(CCC6(C)C5C(=O)C=C5C7CC(C)(C(=O)O)CCC7(C)CCC56C)C4(C)C)OC(C(=O)O)C(O)C3O)OC(CO)C(O)C2O)C(O)C(O)C1O (centres unmarked) [Rhaoglucoglycyrrhizin] | potent anti-cancer effects | 17.2 µM | 19.1 µM | 1.08 µM | 6.08 K·kcal/mol | -8.15 kcal/mol | -2.07 kcal/mol |  | 
9 | [NH2][Pt]([NH2])([Cl])[Cl] [CDDP, cisplatin] |  |  |  |  |  |  |  |  | Tumor volume, administered individually [4]: no differences in tumor volume
10 | CC(=O)[C@H]1CC[C@H]2[C@@H]3CCC4=CC(=O)CC[C@]4(C)[C@H]3CC[C@]12C [Progesterone] |  |  |  | 815 µM and 816 µM |  | -4.22 kcal/mol | -23.26 kcal/mol |  | Kd [5]: 0.035 µM
11 | CC1(C)[C@@H](O)CC[C@]2(C)[C@H]3C(=O)C=C4[C@@H]5C[C@@](C)(C(=O)O)CC[C@]5(C)CC[C@@]4(C)[C@]3(C)CC[C@@H]12 [Glycyrrhetinic acid (GA), Glycyrrhetinic acid] |  |  |  |  |  |  |  | Weak Binding | KD ([2]; listed as GA): did not detect significant binding
12 | CC1(C(=O)O)CCC2(C)CCC3(C)C(=CC(=O)C4C5(C)CCC(OC6OC(C(=O)O)C(O)C(O)C6OC6OC(C(=O)O)C(O)C(O)C6O)C(C)(C)C5CCC43C)C2C1 (centres unmarked) [Licorice-saponin H2] | weaker anti-proliferative effects |  |  |  |  |  |  | No Binding | 
